In PubChem BioAssay AID248 (DTP/NCI, 2004):
Where “and” joins values, the source holds several entries; their conditions need not be identical. Equal entries are not always repeated. Toxic doses and inconclusive results are not listed. Rule as the data show it: active = T/C of 150% or more; inactive = T/C below 125%.

System: L1210 leukemia ip in BDF1 mice, survival T/C
Test: NCI In Vivo Anticancer Drug Screen. Data for tumor model L1210 Leukemia (intraperitoneal) in B6D2F1 (BDF1) mice
Conditions: endpoint: mean survival time, higher = longer survival
Method in brief: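 Each compound was tested against a transplantable tumor grown in mice. The endpoint was survival, with treated animals benchmarked against vehicle controls as a simple ratio.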

[1] = dose: 100.0 mg/kg/injection, schedule: Q01DX001 (ip), vehicle: Klucel (hydroxypropylcellulose) (HPC)
[2] = dose: 100.0 mg/kg/injection, schedule: Q01DX009 (ip), vehicle: Klucel (hydroxypropylcellulose) (HPC)
[3] = dose: 100.0 mg/kg/injection, schedule: Q04DX003 (ip), vehicle: Klucel (hydroxypropylcellulose) (HPC)
[4] = dose: 200.0 mg/kg/injection, schedule: Q01DX001 (ip), vehicle: Klucel (hydroxypropylcellulose) (HPC)
[5] = dose: 200.0 mg/kg/injection, schedule: Q01DX009 (ip), vehicle: Klucel (hydroxypropylcellulose) (HPC)
[6] = dose: 200.0 mg/kg/injection, schedule: Q04DX003 (ip), vehicle: Klucel (hydroxypropylcellulose) (HPC)
[7] = dose: 400.0 mg/kg/injection, schedule: Q01DX001 (ip), vehicle: Klucel (hydroxypropylcellulose) (HPC)
[8] = dose: 400.0 mg/kg/injection, schedule: Q01DX009 (ip), vehicle: Klucel (hydroxypropylcellulose) (HPC)
[9] = dose: 400.0 mg/kg/injection, schedule: Q04DX003 (ip), vehicle: Klucel (hydroxypropylcellulose) (HPC)
[10] = dose: 100.0 mg/kg/injection, schedule: Q01DX001 (ip), vehicle: saline
[11] = dose: 200.0 mg/kg/injection, schedule: Q01DX001 (ip), vehicle: saline
[12] = dose: 400.0 mg/kg/injection, schedule: Q01DX001 (ip), vehicle: saline
[13] = dose: 100.0 mg/kg/injection, schedule: Q01DX001 (ip), vehicle: other
[14] = dose: 200.0 mg/kg/injection, schedule: Q01DX001 (ip), vehicle: other
[15] = dose: 400.0 mg/kg/injection, schedule: Q01DX001 (ip), vehicle: other
[16] = dose: 100.0 mg/kg/injection, schedule: Q04DX002 (ip), vehicle: Klucel (hydroxypropylcellulose) (HPC)
[17] = dose: 200.0 mg/kg/injection, schedule: Q04DX002 (ip), vehicle: Klucel (hydroxypropylcellulose) (HPC)
[18] = dose: 400.0 mg/kg/injection, schedule: Q04DX002 (ip), vehicle: Klucel (hydroxypropylcellulose) (HPC)
[19] = dose: 100.0 mg/kg/injection, schedule: Q04DX003 (ip), vehicle: saline with Tween-80
[20] = dose: 200.0 mg/kg/injection, schedule: Q04DX003 (ip), vehicle: saline with Tween-80
[21] = dose: 400.0 mg/kg/injection, schedule: Q04DX003 (ip), vehicle: saline with Tween-80

Measured: T/C

CSc1ccc(OC2CCCCC2OS(C)(=O)=O)cc1 (stereo unspecified)
inactive: [1] 102 % of control | [2] 98 % of control | [3] 107 % of control | [4] 102 % of control | [5] 98 % of control | [6] 91 % of control | [7] 94 % of control | [8] 96 % of control | [9] 96 % of control

CCOC(=O)c1ccc(N=CN(C)C)cc1
inactive: [3] 100 % of control | [6] 95 % of control | [9] 107 % of control

COc1ccc(/C=N/N2CCN(/N=C/c3ccc(OC)c(O)c3)CC2)cc1O
inactive: [10] 93 % of control | [11] 87 % of control | [12] 96 % of control

Oc1c(-c2ccccc2)nn(O)c1-c1ccccc1
inactive: dose: 50.0 mg/kg/injection, schedule: Q01DX009 (ip), vehicle: Klucel (hydroxypropylcellulose) (HPC) 105 % of control

CO/C=C(\C)C(=O)O
inactive: [13] 102 % of control | [14] 98 % of control | [15] 93 % of control

O=C1c2cccc(Cl)c2C(=O)c2c(Cl)cccc21
inactive: [16] 100 % of control and 91 % of control | [17] 94 % of control | [18] 102 % of control and 113 % of control

[CH3][Sn]([CH3])=[O]
inactive: dose: 5.0 mg/kg/injection, schedule: Q01DX001 (ip), vehicle: other 95 % of control | dose: 5.0 mg/kg/injection, schedule: Q01DX001 (ip), vehicle: saline 107 % of control | dose: 10.0 mg/kg/injection, schedule: Q01DX001 (ip), vehicle: other 98 % of control | dose: 10.0 mg/kg/injection, schedule: Q01DX001 (ip), vehicle: saline 98 % of control | dose: 20.0 mg/kg/injection, schedule: Q01DX001 (ip), vehicle: other 93 % of control | dose: 20.0 mg/kg/injection, schedule: Q01DX001 (ip), vehicle: saline 108 % of control | dose: 40.0 mg/kg/injection, schedule: Q01DX001 (ip), vehicle: other 103 % of control | dose: 40.0 mg/kg/injection, schedule: Q01DX001 (ip), vehicle: saline 95 % of control

CCCC(C(=O)O)N(C)Cc1ccccc1 (stereo unspecified)
inactive: dose: 100.0 mg/kg/injection, schedule: Q01DX009 (ip), vehicle: acetone 92 % of control | dose: 200.0 mg/kg/injection, schedule: Q01DX009 (ip), vehicle: acetone 101 % of control | dose: 400.0 mg/kg/injection, schedule: Q01DX009 (ip), vehicle: acetone 97 % of control

O=C(O)C1(C(=O)O)CCC2(CCCCC2)CC1
inactive: dose: 25.0 mg/kg/injection, schedule: Q01DX009 (ip), vehicle: water 95 % of control | dose: 50.0 mg/kg/injection, schedule: Q01DX009 (ip), vehicle: water 101 % of control

O=C(CI)Nc1cccc(NC(=O)C(=O)O)c1
inactive: dose: 20.0 mg/kg/injection, schedule: Q04DX003 (ip), vehicle: Klucel (hydroxypropylcellulose) (HPC) 95 % of control | dose: 40.0 mg/kg/injection, schedule: Q04DX003 (ip), vehicle: Klucel (hydroxypropylcellulose) (HPC) 101 % of control

CC(=O)OC1(C(C)(C)C)C(=O)C(=[N+]=[N-])C(O)(C(C)(C)C)C(=O)C1=[N+]=[N-] (stereo unspecified)
inactive: [13] 97 % of control | [14] 97 % of control | [15] 97 % of control

CCN(CC)CC(=O)c1ccc(O)c(O)c1
inactive: dose: 53.0 mg/kg/injection, schedule: Q01DX Z (ip), vehicle: carboxymethylcellulose (CMC) 109 % of control | dose: 83.0 mg/kg/injection, schedule: Q01DX Z (ip), vehicle: carboxymethylcellulose (CMC) 120 % of control | dose: 125.0 mg/kg/injection, schedule: Q01DX Z (ip), vehicle: carboxymethylcellulose (CMC) 105 % of control | dose: 187.0 mg/kg/injection, schedule: Q01DX Z (ip), vehicle: carboxymethylcellulose (CMC) 115 % of control

Clc1nc(Cl)c2c3c(sc2n1)CCCC3
inactive: dose: 100.0 mg/kg/injection, schedule: Q01DX001 (ip), vehicle: saline sonified 92 % of control | dose: 200.0 mg/kg/injection, schedule: Q01DX001 (ip), vehicle: saline sonified 107 % of control | dose: 400.0 mg/kg/injection, schedule: Q01DX001 (ip), vehicle: saline sonified 90 % of control

O=C(O)c1nnn(Cc2ccccc2)c1C(=O)O
inactive: dose: 100.0 mg/kg/injection, schedule: Q04DX002 (ip), vehicle: saline 104 % of control | dose: 200.0 mg/kg/injection, schedule: Q04DX002 (ip), vehicle: saline 104 % of control | dose: 400.0 mg/kg/injection, schedule: Q04DX002 (ip), vehicle: saline 96 % of control

COc1cc(C2=N/C(=C\c3cc(Cl)cc(Cl)c3O)C(=O)O2)cc(OC)c1OC
inactive: [16] 107 % of control | [17] 110 % of control | [18] 100 % of control

N#CCCP(CCC#N)CCP(CCC#N)CCC#N
inactive: [19] 96 % of control | [20] 89 % of control | [21] 86 % of control

CCOC(=O)c1ccc(NC(=O)Oc2ccccc2F)cc1
inactive: [2] 91 % of control | [5] 98 % of control | [8] 96 % of control

FC(F)(F)c1nccc(=S)[nH]1
inactive: dose: 50.0 mg/kg/injection, schedule: Q01DX Z (ip), vehicle: methylcellulose (MC) 98 % of control | dose: 100.0 mg/kg/injection, schedule: Q01DX Z (ip), vehicle: methylcellulose (MC) 90 % of control

O=C(NC1CCCCC1)c1ccc(Cl)cc1
inactive: [1] 105 % of control | [3] 94 % of control | [4] 89 % of control | [6] 105 % of control | [7] 105 % of control | [9] 102 % of control

C=CC(=O)NC(C)C
inactive: [19] 102 % of control | [20] 104 % of control | [21] 86 % of control

COc1ccccc1/C=C1\SC(=S)NC1=O
inactive: dose: 50.0 mg/kg/injection, schedule: Q01DX001 (ip), vehicle: carboxymethylcellulose (CMC) 92 % of control | dose: 100.0 mg/kg/injection, schedule: Q01DX001 (ip), vehicle: carboxymethylcellulose (CMC) 101 % of control | dose: 200.0 mg/kg/injection, schedule: Q01DX001 (ip), vehicle: carboxymethylcellulose (CMC) 106 % of control | dose: 400.0 mg/kg/injection, schedule: Q01DX001 (ip), vehicle: carboxymethylcellulose (CMC) 90 % of control

CC(=O)Nc1ccc(S(=O)(=O)O)c(OC(C)=O)c1
inactive: [10] 100 % of control | [11] 93 % of control | [12] 114 % of control

CC(C)(CP(c1ccccc1)c1ccccc1)c1ccccc1
inactive: dose: 25.0 mg/kg/injection, schedule: Q04DX002 (ip), vehicle: saline with Tween-80 95 % of control | dose: 50.0 mg/kg/injection, schedule: Q04DX002 (ip), vehicle: saline with Tween-80 95 % of control | dose: 100.0 mg/kg/injection, schedule: Q04DX002 (ip), vehicle: saline with Tween-80 89 % of control | dose: 200.0 mg/kg/injection, schedule: Q04DX002 (ip), vehicle: saline with Tween-80 92 % of control
